# Key:
# [1] = in water at room temperature (25° C.); cited from earlier work
# [2] = Increasing the solubility of cucurbiturils in water: appearance of aqueous compositions comprising cucurbiturils; assay type: physicochemical; settings: 0.2 percent by weight cucurbituril sample, 25° C.
# Protocol: Compositions consisting of the cucurbituril sample and water and compositions consisting of the cucurbituril sample, other substances but no solubilizing agents according to component Z2) of the inventive aqueous compositions, and water were prepared and used as comparative compositions.
# [3] = Malodor removing effect: headspace GC-MS measurement of odorants; settings: headspace 60° C. 30 min, no agent/no cucurbiturils = 100
# Protocol: An artificial malodor composition was prepared by mixing 10 mg of 2,3-butanedione, 5 mg of octanal, 30 mg of isovaleraldehyde, 300 mg of isovaleric acid and 50 mg of hexanal in 1 L of water.
# The cucurbituril sample contains cucurbit[6]uril (50% by weight), cucurbit[7]uril (35% by weight) and cucurbit[8]uril (10% by weight).
# Aqueous cucurbituril composition B: 0.5% by weight of the cucurbituril sample was mixed in water.
# 1 mL of aqueous cucurbituril composition A or B, 1 mL of malodor composition and 3 mL of water were mixed.
# 1 mL of 5% by weight of solubilizing agent in water, 1 mL of malodor composition and 3 mL of water were mixed.
# 4 mL of water and 1 mL of malodor composition were mixed.
# The mixtures were prepared in headspace vials. The vials were then closed tightly and analyzed.
# Analytical evaluation of malodor in the vials was conducted through a headspace measurement. A Gas Chromatograph Agilent 9000 Intuvo equipped with an autosampler Agilent 7697A equipped with a headspace extracting syringe, a Mass Detector Agilent MSD 5977B was used.
# The headspace vials were equilibrated at 60° C. for 30 min at the autosampler before the measurement. A gas phase sample of 1000 μL was extracted from the vial and injected into the GC column. • Carrier gas: Helium 22.7 psi, split 5:1 • Column: DB-624 UI (length 60m, diameter 250 μm, size of film 1.4 μm) • Oven: Initial 40° C.—Hold time 2 mb—Rate 20° C./min—Temperature 260° C. —Hold time 5 min • Mass detector parameter: run in select ion mode. The peak area of each odorant was then integrated and recorded.
# [4] = substance at 10 percent by weight in water
# [5] = substance at 5 percent by weight in water
# [6] = mixture contains cucurbiturils: 1 mL composition A (5% agent + 0.5% cucurbituril sample) or B (0.5% sample only) + 1 mL malodor composition + 3 mL water
# [7] = mixture without cucurbiturils: 1 mL of 5% by weight solubilizing agent + 1 mL malodor composition + 3 mL water
compound,measurement,setting,value
O=C1N2CN3C(=O)N4CN5C(=O)N6CN7C(=O)N8CN9C(=O)N%10CN%11C(=O)N%12CN%13C(=O)N%14CN%15C(=O)N%16CN1C1C2N2CN%17C(=O)N(CN%18C(=O)N(CN%19C(=O)N(CN%20C(=O)N(CN%21C(=O)N(CN%22C(=O)N(CN%23C(=O)N(CN1C2=O)C%16C%15%23)C%14C%13%22)C%12C%11%21)C%10C9%20)C8C7%19)C6C5%18)C4C3%17 (stereo not shown) [cucurbit[8]uril],water solubility,[1],17 µg/mL
CCO [Ethanol],Appearance,[2]; [4],very turbid
Sodium laureth sulfate,Appearance,[2]; [5],very turbid
O=C1N2CN3C(=O)N4CN5C(=O)N6CN7C(=O)N8CN9C(=O)N%10CN%11C(=O)N%12CN1C1C2N2CN%13C(=O)N(CN%14C(=O)N(CN%15C(=O)N(CN%16C(=O)N(CN%17C(=O)N(CN1C2=O)C%12C%11%17)C%10C9%16)C8C7%15)C6C5%14)C4C3%13 (stereo not shown) [cucurbit[6]uril],water solubility,[1],18 µg/mL
C12/14 alkyl ethoxylate with 8 EO,Appearance,[2]; [5],very turbid
[Ca+2].[Cl-].[Cl-] [CaCl2],Appearance,[2]; [4],very turbid
lauramine oxide [Genaminox LA],Appearance,[2]; [5],clear
same,"Relative peak area 2,3-butadione",[3]; [6],11
same,Relative peak area hexanal,[3]; [6],9
same,Relative peak area isovaleraldehyde,[3]; [6],6
same,Relative peak area isovaleric acid,[3]; [6],3
same,Relative peak area octanal,[3]; [6],73
same,"Relative peak area 2,3-butadione",[3]; [7],181
same,Relative peak area hexanal,[3]; [7],203
same,Relative peak area isovaleraldehyde,[3]; [7],182
same,Relative peak area isovaleric acid,[3]; [7],10
same,Relative peak area octanal,[3]; [7],134
Alkylbenzene sulfonate,Appearance,[2]; [5],very turbid
CC(O)CO (stereo not shown) [Propylene glycol],Appearance,[2]; [4],very turbid

# — US20260193571A1, “AQUEOUS COMPOSITION CONTAINING CUCURBITURILS” (Clariant International Ltd, priority 2022, published 2026)
